Reference: ChEMBL document CHEMBL6127043, “Design and synthesis of pyrano[2,3-c]pyrazole-4-aminoquinoline hybrids as effective antimalarial compounds” (Eur J Med Chem, 2024)

What was measured:
Plasmodium falciparum [1] = experiment: Antimalarial activity against chloroquine-sensitive ring stage Plasmodium falciparum 3D7 infected in erythrocytes assessed as reduction in parasite growth measured at 48 hrs interval by Giemsa staining based microscopic analysis; assay type: functional, organism-based; settings: 3D7, Erythrocyte
Plasmodium falciparum [2] = experiment: Antimalarial activity against chloroquine-resistant ring stage Plasmodium falciparum K1 infected in erythrocytes assessed as reduction in parasite growth measured at 48 hrs interval by Giemsa staining based microscopic analysis; assay type: functional, organism-based; settings: K1, Erythrocyte
[3] = Cytotoxicity against human WRL68 cells assessed as reduction in cell viability incubated for 72 hrs by MTT assay; assay type: toxicity, cell-based
[4] = Selectivity index, ratio of IC50 for cytotoxicity against human WRL68 cells to IC50 for antimalarial activity against Plasmodium falciparum 3D7 infected in erythrocytes; assay type: toxicity, cell-based; settings: WRL68 cells versus Plasmodium falciparum 3D7 in erythrocytes, read-out: Ratio IC50
[5] = Selectivity index, ratio of IC50 for cytotoxicity against human WRL68 cells to IC50 for antimalarial activity against Plasmodium falciparum K1 infected in erythrocytes; assay type: toxicity, cell-based; settings: WRL68 cells versus Plasmodium falciparum K1 in erythrocytes, read-out: Ratio IC50
Plasmodium falciparum [6] = experiment: Resistance index, ratio of IC50 for antimalarial activity against chloroquine resistant Plasmodium falciparum K1 infected in erythrocytes to IC50 for antimalarial activity against chloroquine sensitive Plasmodium falciparum 3D7 infected in erythrocytes; assay type: functional
Plasmodium falciparum [7] = experiment: Antimalarial activity against chloroquine-resistant Plasmodium falciparum K1 incubated for 72 hrs by SYBR green I dye based fluorescence analysis; assay type: functional, organism-based; settings: K1, 72 h
Plasmodium falciparum [8] = experiment: Antimalarial activity against Plasmodium falciparum NF54 incubated for 48 hrs by NBT reagent based assay; assay type: functional, organism-based; settings: NF54, 48 h
[9] = Selectivity index, ratio of IC50 for cytotoxicity against African green monkey Vero cells to IC50 for antimalarial activity against Plasmodium falciparum W2; assay type: toxicity, cell-based; settings: Vero cells versus Plasmodium falciparum W2, read-out: Ratio IC50

| IC50 (Plasmodium falciparum [8]) [nM] | Compound | IC50 (Plasmodium falciparum [1]) [nM] | IC50 (Plasmodium falciparum [2]) [nM] | IC50 at 72 h [3] [nM] | selectivity ratio [4] | selectivity ratio [5] | Ratio IC50 (Plasmodium falciparum [6]) | IC50 (Plasmodium falciparum [7]) [nM] | selectivity ratio [9] |
| --- | --- | --- | --- | --- | --- | --- | --- | --- | --- |
|  | CCOC(=O)c1nn(CCNc2ccnc3cc(Cl)ccc23)c2c1C(c1ccc(Br)cc1)C(C#N)=C(N)O2 (stereo not drawn) | 33 | 19 | 5850 | 178 | 309 | 0.58 |  |  |
|  | CCOC(=O)c1nn(CCNc2ccnc3cc(Cl)ccc23)c2c1C(c1ccccc1OC)C(C#N)=C(N)O2 (stereo not drawn) | 15 | 592 | 26100 | 1730 | 44 | 39.18 |  |  |
|  | CCOC(=O)c1nn(CCNc2ccnc3cc(Cl)ccc23)c2c1C(c1ccc(O)c(Br)c1)C(C#N)=C(N)O2 (stereo not drawn) | 23 | 232 | 61600 | 2650 | 265 | 10 |  |  |
|  | CCOC(=O)c1nn(CCNc2ccnc3cc(Cl)ccc23)c2c1C(c1cccc([N+](=O)[O-])c1)C(C#N)=C(N)O2 (stereo not drawn) | 28 | 106 | 35400 | 1260 | 333 | 3.8 |  |  |
|  | CCOC(=O)c1nn(CCNc2ccnc3cc(Cl)ccc23)c2c1C(c1ccc(O)cc1O)C(C#N)=C(N)O2 (stereo not drawn) | 19 | 250 | 23200 | 1220 | 93 | 13.13 |  |  |
|  | CCOC(=O)c1nn(CCNc2ccnc3cc(Cl)ccc23)c2c1C(c1ccc(C#N)cc1)C(C#N)=C(N)O2 (stereo not drawn) | 19 | 37 | > 183000 | > 9450 | > 4920 | 1.92 |  |  |
|  | CCN(CC)CCCC(C)Nc1ccnc2cc(Cl)ccc12 (stereo not drawn) [CHLOROQUINE PHOSPHATE] |  |  | 60600 |  |  |  |  |  |
|  | CCOC(=O)c1nn(CCNc2ccnc3cc(Cl)ccc23)c2c1C(c1cccc(O)c1)C(C#N)=C(N)O2 (stereo not drawn) | 17 | 1340 | 68600 | 3960 | 51 | 77.46 |  |  |
|  | CCOC(=O)c1nn(CCNc2ccnc3cc(Cl)ccc23)c2c1C(c1ccco1)C(C#N)=C(N)O2 (stereo not drawn) | 25 | 207 | 47600 | 1920 | 230 | 8.34 |  |  |
|  | Clc1ccc2c(NCCn3cncc3C3CCCC3)ccnc2c1 |  |  |  |  |  |  | 340 |  |
|  | CCOC(=O)c1nn(CCNc2ccnc3cc(Cl)ccc23)c2c1C(c1ccc(OCC)cc1)C(C#N)=C(N)O2 (stereo not drawn) | 24 | 86 | 6980 | 290 | 81 | 3.57 |  |  |
| 100 | O=C(/C=C/c1ccccc1Br)c1ccc(S(=O)(=O)NCCCNc2ccnc3cc(Cl)ccc23)cc1 |  |  |  |  |  |  |  |  |
|  | CCOC(=O)c1nn(CCNc2ccnc3cc(Cl)ccc23)c2c1C(c1ccc(C(=O)O)cc1)C(C#N)=C(N)O2 (stereo not drawn) | 38 | 210 | 86500 | 2280 | 411 | 5.53 |  |  |
|  | CCOC(=O)c1nn(CCNc2ccnc3cc(Cl)ccc23)c2c1C(c1cccs1)C(C#N)=C(N)O2 (stereo not drawn) | 23 | 37 | 59500 | 2570 | 1590 | 1.62 |  |  |
|  | CCOC(=O)c1nn(CCNc2ccnc3cc(Cl)ccc23)c2c1C(c1ccc(O)cc1)C(C#N)=C(N)O2 (stereo not drawn) | 15 | 2750 | 48600 | 3200 | 18 | 180.66 |  |  |
|  | O=C1c2ccc(N3CCN(CCO)CC3)cc2C(=O)N1CCCNc1ccnc2cc(Cl)ccc12 |  |  |  |  |  |  |  | > 4200 |
|  | CCOC(=O)c1nn(CCNc2ccnc3cc(Cl)ccc23)c2c1C(c1ccc([N+](=O)[O-])cc1)C(C#N)=C(N)O2 (stereo not drawn) | 110 | 294 | 56900 | 563 | 193 | 2.92 |  |  |
|  | CCOC(=O)c1nn(CCNc2ccnc3cc(Cl)ccc23)c2c1C(c1ccc(Cl)cc1)C(C#N)=C(N)O2 (stereo not drawn) | 26 | 48 | 12100 | 467 | 252 | 1.85 |  |  |
|  | CCOC(=O)c1nn(CCNc2ccnc3cc(Cl)ccc23)c2c1C(c1ccccn1)C(C#N)=C(N)O2 (stereo not drawn) | 21 | 24 | 90500 | 4350 | 3780 | 1.15 |  |  |
|  | CCOC(=O)c1nn(CCNc2ccnc3cc(Cl)ccc23)c2c1C(c1ccc(OC)cc1)C(C#N)=C(N)O2 (stereo not drawn) | 21 | 254 | 131000 | 6220 | 514 | 12.1 |  |  |
|  | CCOC(=O)c1nn(CCNc2ccnc3cc(Cl)ccc23)c2c1C(c1cccc(OCC)c1)C(C#N)=C(N)O2 (stereo not drawn) | 68 | 26 | 20900 | 308 | 815 | 0.38 |  |  |
|  | CCOC(=O)c1nn(CCNc2ccnc3cc(Cl)ccc23)c2c1C(c1ccccc1)C(C#N)=C(N)O2 (stereo not drawn) | 19 | 419 | 81500 | 4360 | 195 | 22.39 |  |  |
|  | CCOC(=O)c1nn(CCNc2ccnc3cc(Cl)ccc23)c2c1C(c1c(O)ccc3ccccc13)C(C#N)=C(N)O2 (stereo not drawn) | 301 | 20 | 6690 | 22 | 334 | 0.07 |  |  |
